# Experimental data taken from ChEMBL document CHEMBL3885861, “Open TG-GATES”.
# Organism: Rattus norvegicus
# Experiment: Open TG-GATES - Regimen: Daily Repeat
# Type: toxicity, organism-based, Sprague-Dawley
# Set-up: regimen Daily Repeat, gender Male, age 6 weeks
# Conditions: in vivo, po, 2 mg/kg, route gavage, dose level Low; for APTT / Bas / Eos / Fbg / Hb / Ht / Lym / MCH / MCHC / MCV / Mono / Neu / PT / Plat / RBC / Ret / WBC: tissue Blood; for KIDNEY_TOTAL: tissue Kidney; for LIVER: tissue Liver; for A/G / ALP / ALT / AST / BUN / CRE / Ca / Cl / DBIL / GLC / IP / K / LDH / Na / PL / RALB / TBIL / TC / TG / TP / gamma-GTP: tissue Plasma
smiles,measurement,setting,value
CN(CCOc1ccc(CC2SC(=O)NC2=O)cc1)c1ccccn1.O=C(O)/C=C\C(=O)O (centres undefined) [ROSIGLITAZONE MALEATE],TERMINAL_BW,"72 h, time 3 day",243.4 g
same,APTT,"72 h, time 3 day",15.7 s
same,Bas,"72 h, time 3 day",0%
same,Eos,"72 h, time 3 day",1%
same,Fbg,"72 h, time 3 day",233.4 mg/dL
same,Hb,"72 h, time 3 day",13.2 g/dL
same,Ht,"72 h, time 3 day",40.2%
same,Lym,"72 h, time 3 day",73%
same,MCH,"72 h, time 3 day",20.7 pg
same,MCHC,"72 h, time 3 day",32.7%
same,MCV,"72 h, time 3 day",63.4 fL
same,Mono,"72 h, time 3 day",7.4%
same,Neu,"72 h, time 3 day",18.8%
same,PT,"72 h, time 3 day",11.7 s
same,Plat,"72 h, time 3 day",133 x10_4/uL
same,RBC,"72 h, time 3 day",634.8 x10_4/ul
same,Ret,"72 h, time 3 day",6.7%
same,WBC,"72 h, time 3 day",88.6 x10_2/uL
same,KIDNEY_TOTAL,"72 h, time 3 day",0.7 g
same,LIVER,"72 h, time 3 day",12.2 g
same,A/G,"72 h, time 3 day",2.1
same,ALP,"72 h, time 3 day",1105.8 IU/L
same,ALT,"72 h, time 3 day",36 IU/L
same,AST,"72 h, time 3 day",64.2 IU/L
same,BUN,"72 h, time 3 day",15.6 mg/dL
same,CRE,"72 h, time 3 day",0.2 mg/dL
same,Ca,"72 h, time 3 day",11.5 mg/dL
same,Cl,"72 h, time 3 day",104.4 meq/L
same,DBIL,"72 h, time 3 day",0.01 mg/dL
same,GLC,"72 h, time 3 day",189.4 mg/dL
same,IP,"72 h, time 3 day",8 mg/dL
same,K,"72 h, time 3 day",4.6 meq/L
same,LDH,"72 h, time 3 day",128.2 IU/L
same,Na,"72 h, time 3 day",140.8 meq/L
same,PL,"72 h, time 3 day",152.2 mg/dL
same,RALB,"72 h, time 3 day",3.9 g/dL
same,TBIL,"72 h, time 3 day",0.034 mg/dL
same,TC,"72 h, time 3 day",83 mg/dL
same,TG,"72 h, time 3 day",88.2 mg/dL
same,TP,"72 h, time 3 day",5.8 g/dL
same,gamma-GTP,"72 h, time 3 day",0 IU/L
same,TERMINAL_BW,"[…], time 7 day",271.5 g
same,TERMINAL_BW,"[…], time 14 day",343.6 g
same,TERMINAL_BW,"[…], time 28 day",425.3 g
same,APTT,"[…], time 7 day",16.1 s
same,Bas,"[…], time 7 day",0%
same,Eos,"[…], time 7 day",1%
same,Fbg,"[…], time 7 day",246.6 mg/dL
same,Hb,"[…], time 7 day",13.3 g/dL
same,Ht,"[…], time 7 day",40.4%
same,Lym,"[…], time 7 day",77.6%
same,MCH,"[…], time 7 day",20.9 pg
same,MCHC,"[…], time 7 day",32.9%
same,MCV,"[…], time 7 day",63.5 fL
same,Mono,"[…], time 7 day",5.2%
same,Neu,"[…], time 7 day",16.2%
same,PT,"[…], time 7 day",11.5 s
same,Plat,"[…], time 7 day",134.4 x10_4/uL
same,RBC,"[…], time 7 day",636.8 x10_4/ul
same,Ret,"[…], time 7 day",5.1%
same,WBC,"[…], time 7 day",102.8 x10_2/uL
same,APTT,"[…], time 14 day",15.3 s
same,Bas,"[…], time 14 day",0%
same,Eos,"[…], time 14 day",0.8%
same,Fbg,"[…], time 14 day",233.4 mg/dL
same,Hb,"[…], time 14 day",13.4 g/dL
same,Ht,"[…], time 14 day",40.9%
same,Lym,"[…], time 14 day",77.6%
same,MCH,"[…], time 14 day",20.2 pg
same,MCHC,"[…], time 14 day",32.8%
same,MCV,"[…], time 14 day",61.5 fL
same,Mono,"[…], time 14 day",5.4%
same,Neu,"[…], time 14 day",16.2%
same,PT,"[…], time 14 day",11.7 s
same,Plat,"[…], time 14 day",116.6 x10_4/uL
same,RBC,"[…], time 14 day",666 x10_4/ul
same,Ret,"[…], time 14 day",3.8%
same,WBC,"[…], time 14 day",109.2 x10_2/uL
same,APTT,"[…], time 28 day",15.7 s
same,Bas,"[…], time 28 day",0%
same,Eos,"[…], time 28 day",1%
same,Fbg,"[…], time 28 day",236.8 mg/dL
same,Hb,"[…], time 28 day",14.4 g/dL
same,Ht,"[…], time 28 day",44%
same,Lym,"[…], time 28 day",83.2%
same,MCH,"[…], time 28 day",18.7 pg
same,MCHC,"[…], time 28 day",32.7%
same,MCV,"[…], time 28 day",57.2 fL
same,Mono,"[…], time 28 day",3.8%
same,Neu,"[…], time 28 day",12%
same,PT,"[…], time 28 day",11.9 s
same,Plat,"[…], time 28 day",108.5 x10_4/uL
same,RBC,"[…], time 28 day",769.2 x10_4/ul
same,Ret,"[…], time 28 day",2.2%
same,WBC,"[…], time 28 day",93.8 x10_2/uL
same,KIDNEY_TOTAL,"[…], time 7 day",0.7 g
same,KIDNEY_TOTAL,"[…], time 14 day",0.8 g
same,KIDNEY_TOTAL,"[…], time 28 day",0.7 g
same,LIVER,"[…], time 7 day",12.8 g
same,LIVER,"[…], time 14 day",15.1 g
same,LIVER,"[…], time 28 day",16.8 g
same,A/G,"[…], time 7 day",2
same,ALP,"[…], time 7 day",1242 IU/L
same,ALT,"[…], time 7 day",32.4 IU/L
same,AST,"[…], time 7 day",62.2 IU/L
same,BUN,"[…], time 7 day",19 mg/dL
same,CRE,"[…], time 7 day",0.5 mg/dL
same,Ca,"[…], time 7 day",11.4 mg/dL
same,Cl,"[…], time 7 day",104.6 meq/L
same,DBIL,"[…], time 7 day",0.012 mg/dL
same,GLC,"[…], time 7 day",183.4 mg/dL
same,IP,"[…], time 7 day",7.2 mg/dL
same,K,"[…], time 7 day",4.3 meq/L
same,LDH,"[…], time 7 day",118 IU/L
same,Na,"[…], time 7 day",140.8 meq/L
same,PL,"[…], time 7 day",144.6 mg/dL
same,RALB,"[…], time 7 day",3.8 g/dL
same,TBIL,"[…], time 7 day",0.034 mg/dL
same,TC,"[…], time 7 day",73.6 mg/dL
same,TG,"[…], time 7 day",100.6 mg/dL
same,TP,"[…], time 7 day",5.7 g/dL
same,gamma-GTP,"[…], time 7 day",0.6 IU/L
same,A/G,"[…], time 14 day",2.1
same,ALP,"[…], time 14 day",1340.2 IU/L
same,ALT,"[…], time 14 day",35.2 IU/L
same,AST,"[…], time 14 day",64.8 IU/L
same,BUN,"[…], time 14 day",18 mg/dL
same,CRE,"[…], time 14 day",0.4 mg/dL
same,Ca,"[…], time 14 day",11.2 mg/dL
same,Cl,"[…], time 14 day",105.6 meq/L
same,DBIL,"[…], time 14 day",0.01 mg/dL
same,GLC,"[…], time 14 day",189.8 mg/dL
same,IP,"[…], time 14 day",7.8 mg/dL
same,K,"[…], time 14 day",4.4 meq/L
same,LDH,"[…], time 14 day",92.2 IU/L
same,Na,"[…], time 14 day",143.2 meq/L
same,PL,"[…], time 14 day",142.2 mg/dL
same,RALB,"[…], time 14 day",3.8 g/dL
same,TBIL,"[…], time 14 day",0.032 mg/dL
same,TC,"[…], time 14 day",70.4 mg/dL
same,TG,"[…], time 14 day",110 mg/dL
same,TP,"[…], time 14 day",5.7 g/dL
same,gamma-GTP,"[…], time 14 day",1 IU/L
same,A/G,"[…], time 28 day",2
same,ALP,"[…], time 28 day",1172.5 IU/L
same,ALT,"[…], time 28 day",34 IU/L
same,AST,"[…], time 28 day",62.8 IU/L
same,BUN,"[…], time 28 day",18.2 mg/dL
same,CRE,"[…], time 28 day",0.4 mg/dL
same,Ca,"[…], time 28 day",10.6 mg/dL
same,Cl,"[…], time 28 day",105 meq/L
same,DBIL,"[…], time 28 day",0.01 mg/dL
same,GLC,"[…], time 28 day",185.2 mg/dL
same,IP,"[…], time 28 day",6.4 mg/dL
same,K,"[…], time 28 day",4.2 meq/L
same,LDH,"[…], time 28 day",90.2 IU/L
same,Na,"[…], time 28 day",141.2 meq/L
same,PL,"[…], time 28 day",119 mg/dL
same,RALB,"[…], time 28 day",3.9 g/dL
same,TBIL,"[…], time 28 day",0.035 mg/dL
same,TC,"[…], time 28 day",54.8 mg/dL
same,TG,"[…], time 28 day",126.5 mg/dL
same,TP,"[…], time 28 day",5.9 g/dL
same,gamma-GTP,"[…], time 28 day",0 IU/L
